Source: patent US8299296B2, “Spiro compounds and pharmaceutical use thereof” (Japan Tobacco Inc., priority 2007, dated 2012)
Counter-ions that a name gives are not always drawn.

Molecular target: T1, human GPR40 (Homo sapiens, UniProt O14842)
T1 construct: expressed in transfected cells
Assay: Ca2+ mobilization (FLIPR) in a stable GPR40-expressing cell; GPR40 agonist activity
Type: cell-based
Details: compound concentration corresponding to 50% PosiC, 100% = intracellular calcium level induced by 80 μM palmitic acid
Description: Evaluation of effect of test compounds on Ca^2+ mobilization by using a stable GPR40-expressing cell A stable human GPR40-expressing HEK293 cell was used. A cell suspension was prepared such that the above-mentioned cells were present at 6×10^5 cells/mL in a cell culture medium (D-MEM (Nikken Bio Medical Laboratory) supplemented with 10% (v/v) fetal bovine serum (Biowest) and 1% (v/v) penicillin-streptomycin solution (Invitrogen)). The cell suspension was plated in a 384-well plate (poly-D-lysine coated plate; Falcon) in a volume of 25 μl/well, and the plate was incubated at 37° C. in an atmosphere of 5% CO2 overnight. Each test compound was added to the cell at each concentration as below, and then the change in intracellular calcium level was measured by FLIPR^TETRA (Molecular Devices). Before the FLIPR assay, the following preparative solutions were prepared. First, an assay buffer was prepared for use in the preparation of a fluorescent dye solution and a diluent buffer solution. The assay buffer was prepared by adding 1M HEPES solution (Invitrogen) to Hanks' Balanced Salt Solution (Invitrogen), followed by adjusting the pH to 7.4 with 1M NaOH (Nacalai Tesque). Next, the fluorescent dye solution and the diluent buffer solution were prepared. The fluorescent dye solution was prepared in accordance with the instruction manual attached to Fluo-4NW calcium assay kit (Invitrogen), followed by addition of bovine serum albumin (Sigma) to a final concentration of 0.1% (w/v). The diluent buffer solution was prepared by adding bovine serum albumin (Sigma) to the assay buffer to give a final concentration of 0.1% (w/v). After removing a medium supernatant from the cell culture plate incubated overnight, the fluorescent dye solution was added to the plate in a volume of 25 μl/well. The plate was incubated at 37° C. in an atmosphere of 5% CO2 for 90 minutes to promote the fluorescent dye uptake in the cell. Meanwhile, the test compounds (i.e., the compounds prepared in Examples) dissolved in dimethyl sulfoxide (DMSO; Nacalai Tesque) were diluted with the diluent buffer solution, to prepare each compound solution at each concentration. In addition, a palmitic acid solution was prepared as a positive control solution (hereinafter abbreviated as PosiC). A 40 μl aliquot of each sample solution prepared as above was added to each well of a 384-well polypropylene plate to prepare a compound plate. Finally, after the sufficient uptake of the fluorescent dye in the cell, the cell plate and the compound plate were set to FLIPR^TETRA. After the above pretreatment, the change in intracellular calcium level was measured by FLIPR^TETRA upon addition of 25 μl of each test compound solution at each concentration. The GPR40 agonist activity of each test compound at each concentration was determined as a relative activity level (% PosiC) with the intracellular calcium level induced by 80 μM palmitic acid (a GPR40 agonist) set to 100%. Next, each compound concentration corresponding to 50% PosiC was calculated based on the % PosiC value, to compare between agonist activities of the test compounds. In the tables, “++++” indicates 0.01 μM or more but less than 0.1 μM, “+++” indicates 0.1 μM or more but less than 1 μM, “++” indicates 1 μM or more but less than 10 μM, and “+” indicates 10 μM or more for 50% posiC value. In the tables, “N.T.” indicates “not tested”.

T1 sequence (O14842 whole entry): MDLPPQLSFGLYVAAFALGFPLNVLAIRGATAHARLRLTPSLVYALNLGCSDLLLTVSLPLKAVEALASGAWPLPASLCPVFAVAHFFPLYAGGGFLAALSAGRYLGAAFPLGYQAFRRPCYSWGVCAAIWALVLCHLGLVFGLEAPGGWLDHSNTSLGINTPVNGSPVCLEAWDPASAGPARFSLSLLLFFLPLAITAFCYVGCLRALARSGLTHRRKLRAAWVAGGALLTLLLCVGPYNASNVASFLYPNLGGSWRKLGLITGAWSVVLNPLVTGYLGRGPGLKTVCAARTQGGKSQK

SMILES | EC50
CC#C[C@@H](CC(=O)O)c1ccc(OCC2=C[C@@]3(CCC2)CC[C@H](O)C3)cc1 [Example 99, (3S)-3-[4-((2S,5S)-2-hydroxy-spiro[4.5]dec-6-en-7-ylmethoxy)-phenyl]-hex-4-ynoic acid sodium salt] | 1 to 10 µM
COC1CCC2(CCC(COc3ccc(CCC(=O)O)cc3)CC2)CC1 (racemic) [Example 114, 3-[4-(9-methoxy-spiro[5.5]undec-3-ylmethoxy)-phenyl]-propionic acid] | ≥ 10 µM
O=C(O)CCc1ccc(OCC2=CC3(CCCC3)CCC2)cc1Cl [Example 108, 3-[2-chloro-4-(spiro[4.5]dec-6-en-7-ylmethoxy)-phenyl]-propionic acid] | 1 to 10 µM
O=C(O)CCc1ccc(OCC2CCCC3(CCCCC3)C2)cc1 (racemic) [Example 46, 3-[4-(spiro[5.5]undec-2-ylmethoxy)-phenyl]-propionic acid] | 1 to 10 µM
O=C(O)CCc1ccc(OCC2CCCC3(CCCCCC3)C2)cc1 (racemic) [Example 49, 3-[4-(spiro[5.6]dodec-2-ylmethoxy)-phenyl]-propionic acid] | 1 to 10 µM
O=C(O)CCc1ccc(OCC2=CC3(CCC3)CC2)cc1 [Example 117, 3-[4-(spiro[3.4]oct-5-en-6-ylmethoxy)-phenyl]-propionic acid] | 1 to 10 µM
CCOC(CC(=O)O)c1ccc(OCC2=CC3(CCCCC3)CCC2)cc1 (single isomer, unassigned; (+)) [Example 44, (+)-3-ethoxy-3-[4-(spiro[5.5]undec-1-en-2-ylmethoxy)-phenyl]-propionic acid] | 1 to 10 µM
C#CC(CC(=O)O)c1ccc(OCC2CCCC3(CCCCC3)C2)cc1 (racemic) [Example 85, 3-[4-(spiro[5.5]undec-2-ylmethoxy)-phenyl]-pent-4-ynoic acid] | 1 to 10 µM
CCC#CC(CC(=O)O)c1ccc(OCC2CCCC3(CCCCC3)C2)cc1 (racemic) [Example 84, 3-[4-(spiro[5.5]undec-2-ylmethoxy)-phenyl]-hept-4-ynoic acid] | 1 to 10 µM
O=C(O)CCc1ccc(OCC2CCCC3(CCCCC3)C2)cc1 (single isomer, unassigned) [Example 88, 3-[4-(spiro[5.5]undec-2-ylmethoxy)-phenyl]-propionic acid (chiral: A)] | 1 to 10 µM
CNC(=O)C(CC(=O)O)c1ccc(OCC2CCCC3(CCCCC3)C2)cc1 (racemic) [Example 65, N-methyl-3-[4-(spiro[5.5]undec-2-ylmethoxy)-phenyl]-succinamic acid] | 1 to 10 µM
CC#C[C@@H](CC(=O)O)c1ccc(OCC2=C[C@]3(CCC2)CC[C@@H](O)C3)cc1 [Example 105, (3S)-3-[4-((2R,5R)-2-hydroxy-spiro[4.5]dec-6-en-7-ylmethoxy)-phenyl]-hex-4-ynoic acid sodium salt] | 1 to 10 µM
O=C(O)CCc1ccc(OC2CCCC3(CCCCC3)C2)cc1 (racemic) [Example 61, 3-[4-(spiro[5.5]undec-2-yloxy)-phenyl]-propionic acid] | ≥ 10 µM
CC#C[C@@H](CC(=O)O)c1ccc(OCC2CCCCC23CCCCC3)cc1 (mixture of isomers) [Example 72, (3S)-3-[4-(spiro[5.5]undec-1-ylmethoxy)-phenyl]-hex-4-ynoic acid] | 1 to 10 µM
O=C(O)CCc1ccc(OCC2=CC3(CCCC3)CCC2)c(F)c1 [Example 112, 3-[3-fluoro-4-(spiro[4.5]dec-6-en-7-ylmethoxy)-phenyl]-propionic acid] | ≥ 10 µM

The remaining lines, values ahead:

EC50 | SMILES
0.1 to 1 µM | CC#C[C@@H](CC(=O)O)c1ccc(OCC2=CCC3(CCCC3)C2)cc1 [Example 11, (S)-3-[4-(spiro[4.4]non-2-en-2-ylmethoxy)-phenyl]-hex-4-ynoic acid]
0.1 to 1 µM | CCOC(CC(=O)O)c1ccc(OCC2=CC3(CCCCC3)CCC2)cc1 (single isomer, unassigned; (-)) [Example 120, (−)-3-ethoxy-3-[4-(spiro[5.5]undec-1-en-2-ylmethoxy)-phenyl]-propionic acid L-lysine salt]
1 to 10 µM | CC1(C)CCC2(CCCC(COc3ccc(CCC(=O)O)cc3)C2)CC1 (racemic) [Example 54, 3-[4-(9,9-dimethyl-spiro[5.5]undec-2-ylmethoxy)-phenyl]-propionic acid]
1 to 10 µM | CC#C[C@H](CC(=O)O)c1ccc(OCC2=CC3(CCCC3)CCC2)cc1 [Example 94, (R)-3-[4-(spiro[4.5]dec-6-en-7-ylmethoxy)-phenyl]-hex-4-ynoic acid L-lysine salt]
0.1 to 1 µM | CC#CC(CC(=O)O)c1ccc(OCC2CCCC3(CCCCC3)C2)cc1 (racemic) [Example 47, 3-[4-(spiro[5.5]undec-2-ylmethoxy)-phenyl]-hex-4-ynoic acid]
1 to 10 µM | CC1(C)CC(COc2ccc(CCC(=O)O)cc2)CC2(CCCC2)C1 (racemic) [Example 115, 3-[4-(9,9-dimethyl-spiro[4.5]dec-7-ylmethoxy)-phenyl]-propionic acid]
0.1 to 1 µM | CC#C[C@@H](CC(=O)O)c1ccc(OC2CCC3(CCCCC3)CC2)cc1 [Example 63, (3S)-3-[4-(spiro[5.5]undec-3-yloxy)-phenyl]-hex-4-ynoic acid]
0.1 to 1 µM | CC#C[C@@H](CC(=O)O)c1ccc(OCC2=C[C@]3(CCC2)CCC(=O)C3)cc1 [Example 103, (3S)-3-[4-((5R)-2-oxo-spiro[4.5]dec-6-en-7-ylmethoxy)-phenyl]-hex-4-ynoic acid sodium salt]
0.1 to 1 µM | CC#C[C@@H](CC(=O)O)c1ccc(OCC2=CC3(CCCC3)CC2)cc1 [Example 17, (S)-3-[4-(spiro[4.4]non-1-en-2-ylmethoxy)-phenyl]-hex-4-ynoic acid]
0.1 to 1 µM | C/C=C\[C@@H](CC(=O)O)c1ccc(OCC2CCCC3(CCCCC3)C2)cc1 (mixture of isomers) [Example 77, (Z)-(3R)-3-[4-(spiro[5.5]undec-2-ylmethoxy)-phenyl]-hex-4-enoic acid]
0.1 to 1 µM | CC#C[C@@H](CC(=O)O)c1ccc(OCC2CCCC3(CCCCC3)C2)cc1 (single isomer, unassigned) [Example 32]
0.1 to 1 µM | CC#C[C@@H](CC(=O)O)c1ccc(OCC2CCCC3(CCCCC3)C2)cc1 (stereo partly drawn) [Example 29, (3S)-3-[4-(spiro[5.5]undec-2-ylmethoxy)-phenyl]-hex-4-ynoic acid sodium salt]
0.1 to 1 µM | CC#C[C@@H](CC(=O)O)c1ccc(OCC2CCCC3(CCCCC3)C2O)cc1 (mixture of isomers) [Example 70, (3S)-3-[4-(1-hydroxy-spiro[5.5]undec-2-ylmethoxy)-phenyl]-hex-4-ynoic acid]
0.01 to 0.1 µM | CC#C[C@@H](CC(=O)O)c1ccc(OCC2CCCC3(C=CCCC3(C)C)C2)cc1 (mixture of isomers) [Example 19, (3S)-3-[4-(11,11-dimethyl-spiro[5.5]undec-7-en-2-ylmethoxy)-phenyl]-hex-4-ynoic acid]
0.01 to 0.1 µM | CCOC(CC(=O)O)c1ccc(OCC2=CC3(CCCCC3)CCC2)cc1 (racemic) [Example 41, 3-ethoxy-3-[4-(spiro[5.5]undec-1-en-2-ylmethoxy)-phenyl]-propionic acid]
0.1 to 1 µM | CC(C)OC(CC(=O)O)c1ccc(OCC2CCCC3(CCCCC3)C2)cc1 (racemic) [Example 81, 3-isopropoxy-3-[4-(spiro[5.5]undec-2-ylmethoxy)-phenyl]-propionic acid]
0.1 to 1 µM | CC#C[C@@H](CC(=O)O)c1ccc(OCC2=C[C@@]3(CCC2)CC[C@@H](O)C3)cc1 [Example 101, (3S)-3-[4-((2R,5S)-2-hydroxy-spiro[4.5]dec-6-en-7-ylmethoxy)-phenyl]-hex-4-ynoic acid sodium salt]
0.1 to 1 µM | O=C(O)CC(c1ccc(OCC2CCCC3(CCCCC3)C2)cc1)c1ncco1 (racemic) [Example 66, 3-oxazol-2-yl-3-[4-(spiro[5.5]undec-2-ylmethoxy)-phenyl]-propionic acid]
0.1 to 1 µM | CC#C[C@@H](CC(=O)O)c1ccc(OCC2=CC3(CCCC3)CCC2)cc1 [Example 8, (S)-3-[4-(spiro[4.5]dec-6-en-7-ylmethoxy)-phenyl]-hex-4-ynoic acid sodium salt]
0.1 to 1 µM | CC#C[C@@H](CC(=O)O)c1ccc(OCC2CCCC3(CCCC3)C2)cc1 (single isomer, unassigned) [Example 37]
